Experimental data: patent publication EP4759807A1, “PROTEOLYSIS TARGETING CHIMERA COMPOUND FOR DEGRADING IRAK4 AND USE THEREOF” (Shenzhen Zhongge Biological Technology Co., Ltd., priority 2023, dated 2025)
Like-named read-outs stand apart in the source and are kept apart here.

Target: T1, IRAK4 (Homo sapiens, UniProt Q9NWZ3)
T1 sequence (Q9NWZ3 1-460): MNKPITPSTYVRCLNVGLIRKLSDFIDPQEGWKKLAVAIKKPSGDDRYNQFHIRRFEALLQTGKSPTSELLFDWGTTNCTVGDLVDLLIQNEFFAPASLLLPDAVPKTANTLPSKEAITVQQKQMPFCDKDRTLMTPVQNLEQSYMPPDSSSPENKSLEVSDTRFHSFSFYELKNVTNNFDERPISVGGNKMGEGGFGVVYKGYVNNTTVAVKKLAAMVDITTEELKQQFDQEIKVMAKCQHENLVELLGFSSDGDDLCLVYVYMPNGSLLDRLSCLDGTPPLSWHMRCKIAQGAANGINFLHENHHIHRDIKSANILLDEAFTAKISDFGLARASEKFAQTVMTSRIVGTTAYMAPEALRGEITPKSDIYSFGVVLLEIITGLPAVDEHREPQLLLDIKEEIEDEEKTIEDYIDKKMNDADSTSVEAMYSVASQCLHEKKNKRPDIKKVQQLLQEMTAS
Assay: WB detection of proteolysis (Western Blot, THP-1 cells)
Assay type: cell-based
Settings: Western Blot, THP-1 cells, 24 h; for DC50: read-out: DC50
Protocol: The degradation level of IRAK4 in THP-1 cells was detected by Western Blot technology. […] 1000X gradient dilution stock of the compound was prepared, with the highest concentration set at 300 µM. The dilution was carried out using DMSO in a 1:3 dilution factor, yielding a total of 9 concentrations. 1000X gradient dilutions of the compound were added to a 12-well plate, with 1 µL per well. Incubation was performed under conditions of 37°C and 5% CO2 for 24 h, and the cells were collected into 2 mL of centrifuge tubes and centrifuged at 5000 rpm for 5 min, and the supernatant was removed. 100 µL of RIPA lysis buffer (Beyotime, P0013C) was added and mixed uniformly, then the cells were lysed on ice for 10 min, centrifuged at 4°C at 14000 rpm for 10 min, and the supernatant was collected. Protein content was determined with BCA (Solarbio, PC0020-10*50T). 75 µL of the supernatant was taken, and 25 µL of NuPAGE LDS Sample Buffer (4X) (Thermo B0007) was added to each tube (5% β-mercaptoethanol was added before use) to prepare samples, and the samples were boiled in a metal bath at 100°C for 5 min. […] 1x NuPAGE™ MOPS SDS electrophoresis buffer (20X) (Invitrogen, NP0001) was prepared, and the electrophoresis instrument was set to a constant current of 300 mA for 100 min, and the protein was transferred to a PVDF membrane (Millipore, IPVH00010). […] The membrane was washed three times with 1x TBST (Elabscience E-BC-R335) the next day, each time for 5 min. […] The membrane was washed three times with TBST, each time for 5 min. The Odyssey imaging system Li-cor Odyssey CLx was used to detect signals and analyze data. GraphPad (Prism 9.3) software was used to perform analysis for data, and non-linear fitting (non-liner inhibitor (Bell-shaped)) and four parameters (4 parameter) were used, and the parameters was as follows: Span1 = Plateau1−Dip [formula] Span2 = Plateau2−Dip [formula] Section1 = Span1/(1+10^(∧)((LogEC50_1−X)*nH1)) [formula] Section2 = Span2/(1+10^(∧)((X−LogEC50_2)*nH2)) [formula]
The equation was as follows: Y=Dip+Section1+Section2.

Compound | DC50 | Dmax (read-out: Dmax) | Dmax
Cn1c(=O)n(C2CCC(=O)NC2=O)c2cccc(N3CCCN(C[C@H]4CC[C@H](n5cc(-n6cc(-c7ccc8cc(C(N)=O)cnn78)nn6)c(C(F)F)n5)CC4)CC3)c21 (relative stereo) [Example 289, 7-(1-(3-(difluoromethyl)-1-((1R,4R)-4-((4-(1-(2,6-dioxopiperidin-3-yl)-3-methyl-2-oxo-2,3-dihydro-1H-benzoimidazol-4-yl)-1,4-diazepan-1-yl)methyl)cyclohexyl)-1H-pyrazol-4-yl)-1H-1,2,3-triazol-4-yl)pyrrolo[1,2-b]pyridazine-3-carboxamide] | < 10 nM | < 60% | 
Cn1nc(N2CCC(=O)NC2=O)c2ccc(N3CCC(N4CCN(C[C@H]5CC[C@H](n6cc(-n7cc(-c8cnn9ccc(N[C@@H]%10CCCC[C@@H]%10O)nc89)nn7)c(C(F)F)n6)CC5)CC4)CC3)cc21 [Example 161] | > 30 nM | < 60% | 
C[C@H]1CN(C[C@H]2CC[C@H](n3cc(-n4cc(-c5cnn6ccc(N[C@@H]7CCCC[C@@H]7O)nc56)nn4)c(C(F)F)n3)CC2)CCN1C1CCN(c2cccc3c2n(C)c(=O)n3C2CCC(=O)NC2=O)CC1 (stereo partly drawn) [Example 166] | < 10 nM | > 70% | 
Cn1c(=O)n(C2CCC(=O)NC2=O)c2cccc(N3CCC(CN4CCC5(CCC(n6cc(-n7cc(-c8cnn9ccc(N[C@@H]%10CCCC[C@@H]%10O)nc89)nn7)c(C(F)F)n6)CC5)CC4)CC3)c21 (stereo partly drawn) [Example 171, 3-(4-(4-((9-(3-(difluoromethyl)-4-(4-(5-(((1R,2S)-2-hydroxycyclohexyl)amino)pyrazolo[1,5-a]pyrimidin-3-yl)-1H-1,2,3-triazol-1-yl)-1H-pyrazol-1-yl]-3-azaspiro[5.5]undecan-3-yl)methyl)piperidin-1-yl)-3-methyl-2-oxo-2,3-dihydro-1H-benzo[d]imidazol-1-yl)piperidine-2,6-dione] | < 10 nM | > 70% | 
Cn1c(=O)n(C2CCC(=O)NC2=O)c2cccc(N3CCC(CN4CCC5(CCC(n6cc(-n7cc(-c8ccc9cc(C(N)=O)cnn89)nn7)c(C(F)F)n6)CC5)CC4)CC3)c21 (stereo not drawn) [Example 172] | < 10 nM | > 70% | 
Cn1c(=O)n(C2CCC(=O)NC2=O)c2cccc(N3CCC(N4CCN(C[C@H]5CC[C@H](n6cc(-n7cc(-c8cnn9ccc(N%10CCOC[C@@H]%10CO)nc89)nn7)c(C(F)F)n6)CC5)CC4)CC3)c21 (stereo partly drawn) [Example 173] | < 10 nM | > 70% | 
Cn1c(=O)n(C2CCC(=O)NC2=O)c2cccc(N3CCC4(CCN(C[C@H]5CC[C@H](n6cc(-n7cc(-c8cnn9ccc(N%10CCOC[C@@H]%10CO)nc89)nn7)c(C(F)F)n6)CC5)CC4)CC3)c21 (stereo partly drawn) [Example 174] | < 10 nM | > 70% | 
Cn1c(=O)n(C2CCC(=O)NC2=O)c2cccc(N3CCC(N4CCN(C[C@H]5CC[C@H](n6cc(-n7cc(-c8cnn9ccc(N%10CCO[C@@H](CO)C%10)nc89)nn7)c(C(F)F)n6)CC5)CC4)CC3)c21 (stereo partly drawn) [Example 175] | < 10 nM | > 70% | 
Cn1c(=O)n(C2CCC(=O)NC2=O)c2cccc(N3CCC4(CCN(CC5CCC(n6cc(-n7cc(-c8cnn9ccc(N%10CCO[C@@H](CO)C%10)nc89)nn7)c(C(F)F)n6)CC5)CC4)CC3)c21 (stereo partly drawn) [Example 176] | < 10 nM |  | A (Dmax ≥ 70%)
Cn1c(=O)n(C2CCC(=O)NC2=O)c2cccc(N3CCC(N4CCN(C[C@H]5CC[C@H](n6cc(-n7cc(-c8cnn9ccc(N%10CCC[C@@H](O)C%10)nc89)nn7)c(C(F)F)n6)CC5)CC4)CC3)c21 (stereo partly drawn) [Example 247] | < 10 nM | > 70% | 
Cn1c(=O)n(C2CCC(=O)NC2=O)c2cccc(N3CCC(CN4CCC5(CCC(n6cc(-n7cc(-n8ccc9cc(C(N)=O)cnc98)nn7)c(C(F)F)n6)CC5)CC4)CC3)c21 (stereo not drawn) [Example 286] | > 30 nM | < 60% | 
C[C@H]1CN(c2cccc3c2n(C)c(=O)n3C2CCC(=O)NC2=O)CCN1C[C@H]1CC[C@H](n2cc(-n3cc(-c4cnn5ccc(N6CCC[C@H](O)C6)nc45)nn3)c(C(F)F)n2)CC1 (stereo partly drawn) [Example 287, 3-(4-((S)-4-(((1R,4S)-4-(3-(difluoromethyl)-4-(4-(5-((S)-3-hydroxypiperidin-1-yl)pyrazolo[1,5-a]pyrimidin-3-yl)-1H-1,2,3-triazol-1-yl)-1H-pyrazol-1-yl)cyclohexyl)methyl)-3-methylpiperazin-1-yl)-3-methyl-2-oxo-2,3-dihydro-1H-benzo[d]imidazol-1-yl)piperidine-2,6-dione] | < 10 nM | > 70% | 
Cn1c(=O)n(C2CCC(=O)NC2=O)c2cccc(N3CCC(CN4CCC5(CCC(n6cc(-n7cc(-c8cnn9ccc(N%10CCC[C@H](O)C%10)nc89)nn7)c(C(F)F)n6)CC5)CC4)CC3)c21 (stereo partly drawn) [Example 290] | < 10 nM | > 70% | 
C[C@H]1CN(C2CCN(c3cccc4c3n(C)c(=O)n4C3CCC(=O)NC3=O)CC2)CCN1C[C@H]1CC[C@H](n2cc(-n3cc(-c4cnn5ccc(N6CCC[C@H](O)C6)nc45)nn3)c(C(F)F)n2)CC1 (stereo partly drawn) [Example 291, 3-(4-(4-((S)-4-(((1R,4S)-4-(3-(difluoromethyl)-4-(4-(5-((S)-3-hydroxypiperidin-1-yl)pyrazolo[1,5-a]pyrimidin-3-yl)-1H-1,2,3-triazol-1-yl)-1H-pyrazol-1-yl)cyclohexyl)methyl)-3-methylpiperazin-1-yl)piperidin-1-yl)-3-methyl-2-oxo-2,3-dihydro-1H-benzo[d]imidazol-1-yl)piperidine-2,6-dione] | < 10 nM | > 70% | 
C[C@@H]1CN(C2CCN(c3cccc4c3n(C)c(=O)n4C3CCC(=O)NC3=O)CC2)CCN1C[C@H]1CC[C@H](n2cc(-n3cc(-c4cnn5ccc(N6CCC[C@H](O)C6)nc45)nn3)c(C(F)F)n2)CC1 (stereo partly drawn) [Example 292] | < 10 nM | > 70% | 
Cn1nc(C2CCC(=O)NC2=O)c2cccc(N3CCC(N4CCN(C[C@H]5CC[C@H](n6cc(-n7cc(-c8cnn9ccc(N%10CCC[C@H](O)C%10)nc89)nn7)c(C(F)F)n6)CC5)CC4)CC3)c21 (stereo partly drawn) [Example 293] | < 10 nM | > 70% | 
C[C@@H]1CN(C[C@H]2CC[C@H](n3cc(-n4cc(-c5cnn6ccc(N7CCC[C@H](O)C7)nc56)nn4)c(C(F)F)n3)CC2)CCN1C1CCN(c2cccc3c2n(C)c(=O)n3C2CCC(=O)NC2=O)CC1 (stereo partly drawn) [Example 294, 3-(4-(4-((R)-4-(((1R,4R)-4-(3-(difluoromethyl)-4-(4-(5-((S)-3-hydroxypiperidin-1-yl)pyrazolo[1,5-a]pyrimidin-3-yl)-1H-1,2,3-triazol-1-yl)-1H-pyrazol-1-yl)cyclohexyl)methyl)-2-methylpiperazin-1-yl)piperidin-1-yl)-3-methyl-2-oxo-2,3-dihydro-1H-benzo[d]imidazol-1-yl)piperidine-2,6-dione] | < 10 nM | > 70% | 
C[C@H]1CC2(CCN(c3cccc4c3n(C)c(=O)n4C3CCC(=O)NC3=O)CC2)CN1C[C@H]1CC[C@H](n2cc(-n3cc(-c4cnn5ccc(N6CCC[C@H](O)C6)nc45)nn3)c(C(F)F)n2)CC1 (stereo partly drawn) [Example 295, 3-(4-((S)-2-(((1R,4S)-4-(3-(difluoromethyl)-4-(4-(5-((S)-3-hydroxypiperidin-1-yl)pyrazolo[1,5-a]pyrimidin-3-yl)-1H-1,2,3-triazol-1-yl)-1H-pyrazol-1-yl)cyclohexyl)methyl)-3-methyl-2,8-diazaspiro[4.5]dec-8-yl)-3-methyl-2-oxo-2,3-dihydro-1H-benzo[d]imidazol-1-yl)piperidine-2,6-dione] | > 30 nM | > 70% | 
